Reference: PubChem BioAssay (NCI)
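Following 48 hours of exposure in 96-well plates, responses at five concentrations were used to interpolate endpoints linearly. TGI denotes the concentration required for complete inhibition of growth.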

What was measured:
Test in all cases: NCI-60 cell line screen, 48 h
[1] = test system: 786-0 renal
[2] = test system: A498 renal
[3] = test system: A549 NSCLC
[4] = test system: ACHN renal
[5] = test system: BT-549 breast
[6] = test system: CAKI-1 renal
[7] = test system: CCRF-CEM leukemia
[8] = test system: COLO 205 colon
[9] = test system: DU-145 prostate
[10] = test system: EKVX NSCLC
[11] = test system: HCC-2998 colon
[12] = test system: HCT-116 colon
[13] = test system: HCT-15 colon
[14] = test system: HL-60(TB) leukemia
[15] = test system: HOP-62 NSCLC
[16] = test system: HOP-92 NSCLC
[17] = test system: HS 578T breast
[18] = test system: HT29 colon
[19] = test system: IGROV1 ovarian
[20] = test system: K-562 leukemia
[21] = test system: KM12 colon
[22] = test system: LOX IMVI melanoma
[23] = test system: M14 melanoma
[24] = test system: MALME-3M melanoma
[25] = test system: MCF7 breast
[26] = test system: MDA-MB-231 breast
[27] = test system: MDA-MB-435
[28] = test system: MDA-N
[29] = test system: MOLT-4 leukemia
[30] = test system: NCI-H23 lung
[31] = test system: NCI-H460 lung
[32] = test system: NCI-H522 lung
[33] = test system: NCI/ADR-RES ovarian
[34] = test system: OVCAR-3 ovarian
[35] = test system: OVCAR-4 ovarian
[36] = test system: OVCAR-5 ovarian
[37] = test system: OVCAR-8 ovarian
[38] = test system: PC-3 prostate
[39] = test system: RPMI-8226 leukemia
[40] = test system: RXF 393 renal
[41] = test system: SF-268 CNS
[42] = test system: SF-295 CNS
[43] = test system: SK-MEL-2 melanoma
[44] = test system: SK-MEL-28 melanoma
[45] = test system: SK-MEL-5 melanoma
[46] = test system: SK-OV-3 ovarian
[47] = test system: SN12C renal
[48] = test system: SNB-19 CNS
[49] = test system: SNB-75 CNS
[50] = test system: SW-620 colon
[51] = test system: T-47D breast
[52] = test system: TK-10 renal
[53] = test system: U251 CNS
[54] = test system: UACC-257 melanoma
[55] = test system: UACC-62 melanoma
[56] = test system: UO-31 renal
[57] = test system: SF-539 CNS

O=C1Nc2ccccc2/C1=C\c1c(Cl)nc2n1CCS2
TGI [1]: 60.6 µM | TGI [2]: 61.4 µM | TGI [3]: > 100 µM | TGI [4]: > 100 µM | TGI [5]: 52.8 µM | TGI [6]: > 100 µM | TGI [7]: > 100 µM | TGI [8]: 38.5 µM | TGI [9]: > 100 µM | TGI [10]: > 100 µM | TGI [11]: 35.3 µM | TGI [12]: 68 µM | TGI [13]: 64.5 µM | TGI [14]: 48.8 µM | TGI [15]: > 100 µM | TGI [16]: > 100 µM | TGI [17]: 40.1 µM | TGI [18]: > 100 µM | TGI [19]: > 100 µM | TGI [20]: > 100 µM | TGI [21]: > 100 µM | TGI [22]: > 100 µM | TGI [23]: > 100 µM | TGI [24]: 62.1 µM | TGI [25]: 60.6 µM | TGI [26]: 53.2 µM | TGI [27]: 43.9 µM | TGI [28]: 43.6 µM | TGI [29]: 97.9 µM | TGI [30]: 65.8 µM | TGI [31]: 45.3 µM | TGI [32]: 40.5 µM | TGI [33]: 67.5 µM | TGI [34]: 68.7 µM | TGI [35]: > 100 µM | TGI [36]: > 100 µM | TGI [37]: > 100 µM | TGI [38]: 80.4 µM | TGI [39]: > 100 µM | TGI [40]: 57.3 µM | TGI [41]: 94.8 µM | TGI [42]: 99.6 µM | TGI [43]: 32.5 µM | TGI [44]: > 100 µM | TGI [45]: 29.4 µM | TGI [46]: 74.9 µM | TGI [47]: > 100 µM | TGI [48]: > 100 µM | TGI [49]: 56.8 µM | TGI [50]: > 100 µM | TGI [51]: 91 µM | TGI [52]: 49.9 µM | TGI [53]: 75.6 µM | TGI [54]: 30.6 µM | TGI [55]: 32.2 µM | TGI [56]: > 100 µM

CC(=O)N(C(C)=O)n1nc2c(n1)C(=O)c1ccccc1C2=O
TGI [1]: > 100 µM | TGI [2]: > 100 µM | TGI [3]: > 100 µM | TGI [4]: > 100 µM | TGI [5]: > 100 µM | TGI [6]: > 100 µM | TGI [7]: > 100 µM | TGI [8]: > 100 µM | TGI [9]: > 100 µM | TGI [10]: > 100 µM | TGI [12]: > 100 µM | TGI [13]: > 100 µM | TGI [14]: > 100 µM | TGI [15]: > 100 µM | TGI [16]: > 100 µM | TGI [17]: > 100 µM | TGI [18]: > 100 µM | TGI [19]: > 100 µM | TGI [21]: > 100 µM | TGI [22]: > 100 µM | TGI [23]: > 100 µM | TGI [24]: > 100 µM | TGI [25]: > 100 µM | TGI [26]: > 100 µM | TGI [27]: > 100 µM | TGI [28]: > 100 µM | TGI [29]: > 100 µM | TGI [30]: > 100 µM | TGI [31]: > 100 µM | TGI [32]: > 100 µM | TGI [33]: > 100 µM | TGI [34]: > 100 µM | TGI [35]: > 100 µM | TGI [36]: > 100 µM | TGI [37]: > 100 µM | TGI [38]: > 100 µM | TGI [39]: > 100 µM | TGI [40]: > 100 µM | TGI [41]: > 100 µM | TGI [42]: > 100 µM | TGI [57]: > 100 µM | TGI [43]: > 100 µM | TGI [44]: > 100 µM | TGI [45]: > 100 µM | TGI [46]: > 100 µM | TGI [47]: > 100 µM | TGI [48]: > 100 µM | TGI [50]: > 100 µM | TGI [51]: > 100 µM | TGI [52]: > 100 µM | TGI [53]: > 100 µM | TGI [54]: > 100 µM | TGI [55]: > 100 µM | TGI [56]: > 100 µM
